Assay results: patent US11786481B2, “Formulation and process for modulating wound healing” (BioMendics, LLC, priority 2015, dated 2023)

Key:
[1] = test system: full thickness excision wounds; test: In vivo evaluation for wound healing: full thickness excision wounds on the dorsum of mice
Description: Example 10: In Vivo Evaluation of the LCB's for Wound Healing: Twenty, 5-6 week old Balbc/J (stock #000651) male mice were transferred to Jackson Labs in vivo research laboratory in Sacramento, Calif. The mice were ear notched for identification and housed in individually and positively ventilated polycarbonate cages with HEPA filtered air. Bed-o-cob corn cob bedding was used and cages were changed every two weeks. The animal room is lighted entirely with artificial fluorescent lighting, with a controlled 12 h light/dark cycle. The normal temperature and relative humidity ranges in the animal rooms are 22 t 4° C. and 50 t 15%, respectively. The animal rooms were set to have 15 air exchanges per hour. Filtered tap water, acidified to a pH of 2.8 to 3.1, and rodent chow was provided ad libitum. Following a 5-7 days acclimation, mice were randomized by body weight into 2 cohorts of 10 mice each. On study day 0, mice were anesthetized and two full thickness excision wounds (˜6 mm) were made on the dorsum (backs) of mice. One of the wounds was covered using a semi-occlusive polyurethane dressing (Tegaderm™). Dressings covered the wounds for 5 consecutive (5) days from the day of wounding (d 0). The doses of 4-hydroxy-4′-methoxytolan were based on those that promoted lesion healing in mice in previous herpes virus studies. Wound measurements were made on day 5, 7, 9 and 11. Digital images of wounds were taken of each mouse. Test agents were a viscous paste and wounds were surrounded with a saddle glued in place to eliminate cross contamination and wound closure due to contraction. Therefore, changes in wound area are due to re-epithelization. During the five days all wounds are covered with glycerin (control) or glycerin and test agent. At day 5, test agents were removed and changes in wound area were measured (as area/area %) in an effort to gauge the persistence of the compounds in the wound site. By day 5, glycerin produced 26.1% wound closure, whereas 4-hydroxy-4′-methoxytolan (2.5%) closed produced 92.8% wound closure and 5% 4-hydroxy-4′-methoxytolan produced 91.4% wound closure. Prior to statistical analysis a test for Normality was run and a Z-score computed to confirm a normally distributed area for each wound on day 1 for all mice across groups, r^2=0.989. Statistics are computed based One-Way ANOVA's comparing changes in wound area on day 5. All mice tolerated the treatments and all weekly clinical observations report bright, alert, responsive, and hydrated mice.

[2] = test system: skin (keratinocyte layer, dermis); test: H&E staining of excised skin samples; type: in vivo; settings: 5% (w/v)
Description: Example 11: Excised skin samples treated with a control or with 5% (w/v) 4-hydroxy-4′-methoxytolan.

[3] = 2.5% (w/v) topical in glycerin, day 0
[4] = 2.5% (w/v) topical in glycerin, day 5
[5] = 2.5% (w/v) topical in glycerin, day 7
[6] = 2.5% (w/v) topical in glycerin, day 9
[7] = 2.5% (w/v) topical in glycerin, day 11
[8] = 5% (w/v) topical in glycerin, day 0
[9] = 5% (w/v) topical in glycerin, day 5
[10] = 5% (w/v) topical in glycerin, day 7
[11] = 5% (w/v) topical in glycerin, day 9
[12] = 5% (w/v) topical in glycerin, day 11

COc1ccc(C#Cc2ccc(O)cc2)cc1 [4-hydroxy-4′-methoxytolan]
Average Area [1, 3]: 2.07 cm^2
Wound Area (%) Closed [1, 3]: 0%
Average Area [1, 4]: 0.15 cm^2
Wound Area (%) Closed [1, 4]: 92.8%
Average Area [1, 5]: 0.04 cm^2
Wound Area (%) Closed [1, 5]: 100%
Average Area [1, 6]: 0.00 cm^2
Wound Area (%) Closed [1, 6]: 100.0%
Average Area [1, 7]: 0.00 cm^2
Wound Area (%) Closed [1, 7]: 100.0%
Average Area [1, 8]: 1.98 cm^2
Wound Area (%) Closed [1, 8]: 0%
Average Area [1, 9]: 0.17 cm^2
Wound Area (%) Closed [1, 9]: 91.4%
Average Area [1, 10]: 0.08 cm^2
Wound Area (%) Closed [1, 10]: 100%
Average Area [1, 11]: 0.00 cm^2
Wound Area (%) Closed [1, 11]: 100.0%
Average Area [1, 12]: 0.00 cm^2
Wound Area (%) Closed [1, 12]: 100.0%
Tolerability of treatment, weekly clinical observations ([1]; topical 2.5% and 5%, Balbc/J male mice): tolerated
Keratinocyte proliferation ([2]; H&E staining): extensive keratinocyte proliferation
Keratinocyte cell layers ([2]; control 1-2 cells thick): 7-8 cells thick
